# According to patent publication US20240050564A1, “COMBINATION THERAPY USING AN ANTI-FUCOSYL-GM1 ANTIBODY” (BRISTOL-MYERS SQUIBB COMPANY, priority 2021, published 2024):
# How the values were obtained:
# DMS79 cells [1] = assay: DMS-79 SCLC tumor model in mice, anti-fucosyl-GM1 and cisplatin (Example 1); format: in vivo, male C.B17 SCID mice; details: BMS-986012 0.3 mg/kg i.p. days 7, 10, 13, 17, 21; cisplatin 3 mg/kg days 7, 14, 21, 28 (alone with isotype control antibody)
# Procedure: Median tumor volumes are presented for groups of 8 mice at each data point. See Example 1.
# (§1) A combination therapy method of the present invention involving antibody to fucosyl-GM1 and cisplatin was tested in the DMS-79 SCLC tumor model in mice ([…] mice per group). Bepler et al. (1989) Oncogene 4:45; Pettengill (1980) Cancer 45: 906; Pettengill et al. (1980) Exp. Cell Biol. 48:279. Briefly, DMS79 cells were cultured in RPMI with 10% fetal bovine serum (FBS), 2 mM L-glutamine, […] sodium bicarbonate, 4.5 g/L glucose, 10 mM HEPES, and 10 μM NaPyr prior to subcutaneous implantation in the right flanks of male C.B17 SCID mice (5 million cells in 0.1 mL phosphate-buffered saline (PBS) and 0.1 mL […]® gelatinous protein mixture per flank). When tumors reached a mean or median size of 80-155 mm^3 estimated by L×W×H/2 using a digital calipers, mice were randomized into treatment groups (N=8 mice per group).
# Anti-fucosyl-GM1 antibody BMS-986012 was administered at 0.3 mg/kg i.p. to mice on days 7, 10, 13, 17 and 21 post implantation, and cisplatin was administered at 3 mg/kg on days 7, 14, 21 and 28. Because fucosyl-GM1 is a ganglioside rather than a protein, and is the same in mice as in humans, there was no need to use a “mouse surrogate” for mouse studies. Cisplatin was administered in combination with BMS-986012 and with an isotype control antibody at 3 mg/kg as a control. […]
# DMS79 cells [2] = assay: DMS-79 SCLC tumor model in mice, anti-fucosyl-GM1 and etoposide (Example 2); format: in vivo; details: BMS-986012 3 mg/kg i.p. days 7, 11, 15, 18, 21; etoposide 15 mg/kg i.p. days 7, 9, 11 (alone with isotype control antibody)
# Procedure: Median tumor volumes are presented for groups of 8 mice at each data point. See Example 2.
# as §1
# A combination therapy method of the present invention involving antibody to fucosyl-GM1 and etoposide was tested in the DMS-79 SCLC tumor model in mice (N=9 mice per group), essentially as described in Example 1. Anti-fucosyl-GM1 antibody BMS-986012 was administered at 3 mg/kg i.p. to mice on days 7, 11, 15, 18 and 21 post-implantation, and etoposide was administered at 15 mg/kg i.p. on days 7, 9 and 11. […]
# [3] = non-fucosylated, compared to an antibody with typical mammalian glycosylation; cited from earlier work
# Fc receptors = details: non-fucosylated Fc domain; cited from earlier work
# [4] = Binding to closely related molecule GM1
# From the text: (§2) BMS-986012 is a first-in-class fully human monoclonal antibody (mAb) that specifically binds to the fucosyl-GM1 ganglioside. […] Because fucosyl-GM1 is preferentially found on the surface of lung cancer cells, BMS-986012 is particularly well suited to treating lung cancer, such as small cell lung cancer (SCLC).
# [5] = Binding of BMS-986012 to fucosyl-GM1
# From the text: as §2
# [6] = system: small cell lung cancer (SCLC); details: nivolumab monotherapy, 147 patients; cited from earlier work
compound,measurement,setting,value
"N.N.[Cl][Pt][Cl] [cisplatin, reference compound]","tumor growth (median tumor volume, FIG. 1)",DMS79 cells [1],effective as monotherapy to reduce tumor growth
"COc1cc([C@@H]2c3cc4c(cc3[C@@H](O[C@@H]3O[C@@H]5CO[C@@H](C)O[C@H]5[C@H](O)[C@H]3O)[C@H]3COC(=O)[C@H]23)OCO4)cc(OC)c1O [etoposide, reference compound]","tumor growth (median tumor volume, FIG. 2)",DMS79 cells [2],somewhat effective as monotherapy to reduce tumor growth
BMS-986012: anti-fucosyl-GM1 mAb comprising heavy chains of SEQ ID NO: 3 and light chains of SEQ ID NO: 4,"tumor growth (median tumor volume, FIG. 2)",DMS79 cells [2],somewhat effective as monotherapy to reduce tumor growth
same,antibody-dependent cellular cytotoxicity (ADCC),[3],enhanced
same,affinity for Fc receptors,Fc receptors,higher affinity
same,"tumor growth (median tumor volume, FIG. 1)",DMS79 cells [1],effective as monotherapy to reduce tumor growth
same,antigen-specific binding to GM1,[4],no detectable antigen-specific binding
same,binding to fucosyl-GM1,[5],high-affinity and dose-dependent saturable binding
nivolumab: anti-PD-1 mAb comprising heavy chains of SEQ ID NO: 13 and light chains of SEQ ID NO: 14,published ORR,[6],12%
same,published disease control rate,[6],29%
